≈ marks a conversion by molar mass, not a printed value. Values belong to the compound of their own block, whether it stands above or below them.
Key:
[1] = test system: soybean; assay: Upland foliar application test (Test 3), crop injury; assay type: in vivo; settings: 30 g ai/a, foliar spray at 2-3 leaves, 30th day
In short: (§1)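 Foliar post-emergence spray: diluted emulsifiable formulation applied at 5 l/are by pressure ULV sprayer once plants in upland-soil greenhouse pots reached 2-3 leaves. Degree of weed damage and crop injury rated on day 30 post-application.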

[2] = test system: cotton; assay: as above; assay type: in vivo; settings: 30 g ai/a, foliar spray at 2-3 leaves, 30th day
In short: as §1

[3] = test system: peanut; assay: as above; assay type: in vivo; settings: 30 g ai/a, foliar spray at 2-3 leaves, 30th day
In short: as §1

[4] = test system: rice; assay: Treatment of soil under submerged condition, pre-emergence (Test 4), injury; assay type: in vivo; settings: 30 g ai/a granule, 30 days later
In short: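 Wagner pots of soil were seeded or planted with weed seeds or tubers under flooding, then 2–3-leaf rice seedling pairs were transplanted and grown in a greenhouse. One day later, before weed emergence, pots received a granule of the test composition at a predetermined amount. Weed emergence and rice injury were scored 30 days later.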

[5] = test system: green foxtail; assay: Upland foliar application test (Test 3); assay type: in vivo; settings: 30 g ai/a, foliar spray at 2-3 leaves, 30th day
In short: as §1

[6] = test system: barnyardgrass; assay: Upland foliar application test (Test 3); assay type: in vivo; settings: 30 g ai/a, foliar spray at 2-3 leaves, 30th day
In short: as §1

[7] = test system: johnsongrass; assay: Upland foliar application test (Test 3); assay type: in vivo; settings: 30 g ai/a, foliar spray at 2-3 leaves, 30th day
In short: as §1

[8] = test system: common lambsquarters; assay: Upland foliar application test (Test 3); assay type: in vivo; settings: 30 g ai/a, foliar spray at 2-3 leaves, 30th day
In short: as §1

[9] = test system: large crabgrass; assay: Upland foliar application test (Test 3); assay type: in vivo; settings: 30 g ai/a, foliar spray at 2-3 leaves, 30th day
In short: as §1

[10] = test system: foxtail meadow; assay: Upland foliar application test (Test 3); assay type: in vivo; settings: 30 g ai/a, foliar spray at 2-3 leaves, 30th day
In short: as §1

[11] = test system: redroot pigweed; assay: Upland foliar application test (Test 3); assay type: in vivo; settings: 30 g ai/a, foliar spray at 2-3 leaves, 30th day
In short: as §1

[12] = test system: ALS (acetolactate syntase); assay: ALS enzyme assay (Test 1); assay type: biochemical, pea; settings: 1,000 ppm (0.5 mg/0.5 ml)
In short: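 Partially purified ALS from dark-grown pea and barnyardgrass seedlings incubated 1 h at 30° C with pyruvate, TPP, MgCl2 and FAD. Compounds tested at 1,000 ppm (0.5 mg/0.5 ml). Acetoin formed detected colorimetrically at 525 nm via creatine/α-naphthol, relative to blank and acid-stopped controls.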

[13] = test system: narrowleaf waterplantain; assay: Petri dish test (Test 6); assay type: in vivo; settings: 336 h; seeds on filter paper, 25° C., 14 days; read-out: I80 (ppm)
In short: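 Narrowleaf waterplantain seeds placed on filter paper pre-treated with compound in acetone (solvent air-dried) in 9 cm Petri dishes with 10 ml water, grown at 25° C in light. Growth was scored after fourteen days as degree of damage against an untreated group.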

[14] = test system: rice; assay: Treatment of soil under submerged condition, post-emergence (Test 5), injury; assay type: in vivo; settings: 30 g ai/a granule, 30 days later
In short: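 Pots of submerged soil were sown with weed seeds or tubers, and 2-3-leaf rice seedling pairs were transplanted. At barnyardgrass two-leaf stage a granule formulation was applied. Weed emergence and rice injury were rated 30 days later as damage degrees.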

Inhibitory activity (%) Pea [12]: 0%
Structure (SMILES): C=CC(C)ON=Cc1ccccc1Oc1nc(OC)cc(OC)n1 (stereo not shown) [Compound No. 2]
Injury Soybean [1]: 0 (91-100 (No damages)) | Injury Cotton [2]: 0 (91-100 (No damages)) | Injury Peanut [3]: 0 (91-100 (No damages)) | Injury Rice [4]: 1 (71-90 (Slight damages)) | Herbicidal effects Green foxtail [5]: 5 (0-5 (Death)) | Herbicidal effects Barnyardgrass [6]: 5 (0-5 (Death)) | Herbicidal effects Johnsongrass [7]: 5 (0-5 (Death)) | Herbicidal effects Common lambsquarters [8]: 4 (6-10 (Severe damages)) | Herbicidal effects Large crabgrass [9]: 5 (0-5 (Death)) | Herbicidal effects Foxtail meadow [10]: 5 (0-5 (Death)) | Herbicidal effects Redroot pigweed [11]: 4 (6-10 (Severe damages)) | IC80 [13]: 100 µg/mL (≈ 304 µM) | Injury Rice [14]: 0 (91-100 (No damages))

Inhibitory activity (%) Pea [12]: 0%
Structure (SMILES): COc1cc(OC)nc(Oc2ccccc2C=NOC2CCCCC2)n1 [Compound No. 3]
Injury Soybean [1]: 0 (91-100 (No damages)) | Injury Cotton [2]: 0 (91-100 (No damages)) | Injury Peanut [3]: 0 (91-100 (No damages)) | Injury Rice [4]: 0 (91-100 (No damages)) | Herbicidal effects Green foxtail [5]: 5 (0-5 (Death)) | Herbicidal effects Barnyardgrass [6]: 5 (0-5 (Death)) | Herbicidal effects Johnsongrass [7]: 5 (0-5 (Death)) | Herbicidal effects Common lambsquarters [8]: 4 (6-10 (Severe damages)) | Herbicidal effects Large crabgrass [9]: 4 (6-10 (Severe damages)) | Herbicidal effects Foxtail meadow [10]: 5 (0-5 (Death)) | Herbicidal effects Redroot pigweed [11]: 4 (6-10 (Severe damages)) | IC80 [13]: 100 µg/mL (≈ 280 µM) | Injury Rice [14]: 0 (91-100 (No damages))

The remaining lines, values behind:

Structure (SMILES): C=CCON=Cc1ccccc1Oc1nc(OC)cc(OC)n1 [Compound No. 4]
Injury Soybean [1]: 0 (91-100 (No damages)) | Injury Cotton [2]: 0 (91-100 (No damages)) | Injury Peanut [3]: 0 (91-100 (No damages)) | Injury Rice [4]: 0 (91-100 (No damages)) | Herbicidal effects Green foxtail [5]: 5 (0-5 (Death)) | Herbicidal effects Barnyardgrass [6]: 5 (0-5 (Death)) | Herbicidal effects Johnsongrass [7]: 5 (0-5 (Death)) | Herbicidal effects Common lambsquarters [8]: 3 (11-40 (Medium damages)) | Herbicidal effects Large crabgrass [9]: 3 (11-40 (Medium damages)) | Herbicidal effects Foxtail meadow [10]: 5 (0-5 (Death)) | Herbicidal effects Redroot pigweed [11]: 4 (6-10 (Severe damages)) | Inhibitory activity (%) Pea [12]: 0% | IC80 [13]: 100 µg/mL (≈ 317 µM) | Injury Rice [14]: 0 (91-100 (No damages))

Structure (SMILES): COc1cc(OC)nc(Oc2ccccc2C=NOCc2cccc3ccccc23)n1 [compound 22]
Injury Soybean [1]: 0 (91-100 (No damages)) | Injury Cotton [2]: 0 (91-100 (No damages)) | Injury Peanut [3]: 0 (91-100 (No damages)) | Injury Rice [4]: 0 (91-100 (No damages)) | Herbicidal effects Green foxtail [5]: 5 (0-5 (Death)) | Herbicidal effects Barnyardgrass [6]: 5 (0-5 (Death)) | Herbicidal effects Johnsongrass [7]: 5 (0-5 (Death)) | Herbicidal effects Common lambsquarters [8]: 4 (6-10 (Severe damages)) | Herbicidal effects Large crabgrass [9]: 5 (0-5 (Death)) | Herbicidal effects Foxtail meadow [10]: 5 (0-5 (Death)) | Herbicidal effects Redroot pigweed [11]: 5 (0-5 (Death)) | Inhibitory activity (%) Pea [12]: 0% | IC80 [13]: 100 µg/mL (≈ 241 µM) | Injury Rice [14]: 0 (91-100 (No damages))

Structure (SMILES): COc1cc(OC)nc(Oc2ccccc2C=NOCC=C(C)C)n1 [Compound No. 7]
Injury Soybean [1]: 0 (91-100 (No damages)) | Injury Cotton [2]: 0 (91-100 (No damages)) | Injury Peanut [3]: 0 (91-100 (No damages)) | Injury Rice [4]: 1 (71-90 (Slight damages)) | Herbicidal effects Green foxtail [5]: 5 (0-5 (Death)) | Herbicidal effects Barnyardgrass [6]: 5 (0-5 (Death)) | Herbicidal effects Johnsongrass [7]: 5 (0-5 (Death)) | Herbicidal effects Common lambsquarters [8]: 4 (6-10 (Severe damages)) | Herbicidal effects Large crabgrass [9]: 5 (0-5 (Death)) | Herbicidal effects Foxtail meadow [10]: 5 (0-5 (Death)) | Herbicidal effects Redroot pigweed [11]: 5 (0-5 (Death)) | Inhibitory activity (%) Pea [12]: 0% | IC80 [13]: 17 µg/mL (≈ 49.5 µM) | Injury Rice [14]: 0 (91-100 (No damages))
